Assays:
Details in all cases: exposure time: 72 h
E21 [1] = patient-derived glioblastoma stem cells of mesenchymal subtype; assay: phenotypic distance (Euclidean, principal components) from DMSO controls (arbitrary units); higher = stronger morphological change
E34 [2] = patient-derived glioblastoma stem cells of proneural subtype; assay: as above
E13 [3] = patient-derived glioblastoma stem cells of classical subtype; assay: as above
E31 [4] = patient-derived glioblastoma stem cells of proneural subtype; assay: as above
E57 [5] = patient-derived glioblastoma stem cells of mesenchymal subtype; assay: as above
FT3469 [6] = normal neural stem cell line; assay: as above
E28 [7] = patient-derived glioblastoma stem cells of classical subtype; assay: as above
E21 [8] = assay: surviving fraction (nuclei count normalised to DMSO); higher = more cells surviving (less toxic)
E34 [9] = assay: as above
E13 [10] = assay: as above
E31 [11] = assay: as above
E57 [12] = assay: as above
FT3469 [13] = assay: as above
E28 [14] = assay: as above
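For phenotypic distance (Euclidean, principal components) from DMSO controls in this document: cell Painting imaging in 384-well plates, CellProfiler features reduced to at least 20 principal components, Euclidean distance versus same-plate DMSO vehicle wells (0.1% v/v), median over six images per well.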
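For surviving fraction (nuclei count normalised to DMSO) in this document: nuclei counted by high-content imaging of Hoechst-stained cells in laminin-coated 384-well plates, relative to 0.1% DMSO vehicle wells, with staurosporine as cell-death control.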

COc1nc(C)nc(Cl)c1NC1=NCCN1 [Moxonidine]
Details | phenotypic distance | surviving fraction
E13 [3], 4.1 nM | 0.65 | –
E13 [3], 12.3 nM | 0.585 | –
E13 [3], 37 nM | 0.647 | –
E13 [3], 111.1 nM | 0.433 | –
E13 [3], 333.3 nM | 0.523 | –
E13 [3], 1000 nM | 0.446 | –
E13 [3], 3000 nM | 0.37 | –
E13 [10], 4.1 nM | – | 0.843
E13 [10], 12.3 nM | – | 1.02
E13 [10], 37 nM | – | 0.886
E13 [10], 111.1 nM | – | 0.915
E13 [10], 333.3 nM | – | 0.908
E13 [10], 1000 nM | – | 0.948
E13 [10], 3000 nM | – | 0.923
E21 [1], 4.1 nM | 0.506 | –
E21 [1], 12.3 nM | 0.442 | –
E21 [1], 37 nM | 0.528 | –
E21 [1], 111.1 nM | 1.03 | –
E21 [1], 333.3 nM | 0.334 | –
E21 [1], 1000 nM | 0.69 | –
E21 [1], 3000 nM | 0.274 | –
E21 [8], 4.1 nM | – | 1.03
E21 [8], 12.3 nM | – | 0.94
E21 [8], 37 nM | – | 0.924
E21 [8], 111.1 nM | – | 1.12
E21 [8], 333.3 nM | – | 1.1
E21 [8], 1000 nM | – | 1.06
E21 [8], 3000 nM | – | 0.991
E28 [7], 4.1 nM | 0.486 | –
E28 [7], 12.3 nM | 0.819 | –
E28 [7], 37 nM | 0.764 | –
E28 [7], 111.1 nM | 0.711 | –
E28 [7], 333.3 nM | 0.733 | –
E28 [7], 1000 nM | 0.573 | –
E28 [7], 3000 nM | 0.781 | –
E28 [14], 4.1 nM | – | 0.996
E28 [14], 12.3 nM | – | 1.06
E28 [14], 37 nM | – | 0.904
E28 [14], 111.1 nM | – | 1.13
E28 [14], 333.3 nM | – | 0.848
E28 [14], 1000 nM | – | 1.05
E28 [14], 3000 nM | – | 0.825
E31 [4], 4.1 nM | 0.413 | –
E31 [4], 12.3 nM | 0.823 | –
E31 [4], 37 nM | 0.773 | –
E31 [4], 111.1 nM | 0.902 | –
E31 [4], 333.3 nM | 0.598 | –
E31 [4], 1000 nM | 0.599 | –
E31 [4], 3000 nM | 0.717 | –
E31 [11], 4.1 nM | – | 1
E31 [11], 12.3 nM | – | 1.18
E31 [11], 37 nM | – | 0.879
E31 [11], 111.1 nM | – | 1.15
E31 [11], 333.3 nM | – | 0.956
E31 [11], 1000 nM | – | 1.21
E31 [11], 3000 nM | – | 1.06
E34 [2], 4.1 nM | 0.347 | –
E34 [2], 12.3 nM | 0.861 | –
E34 [2], 37 nM | 0.936 | –
E34 [2], 111.1 nM | 0.523 | –
E34 [2], 333.3 nM | 0.639 | –
E34 [2], 1000 nM | 0.533 | –
E34 [2], 3000 nM | 1.09 | –
E34 [9], 4.1 nM | – | 0.953
E34 [9], 12.3 nM | – | 0.957
E34 [9], 37 nM | – | 0.962
E34 [9], 111.1 nM | – | 1.07
E34 [9], 333.3 nM | – | 1.26
E34 [9], 1000 nM | – | 0.981
E34 [9], 3000 nM | – | 0.699
E57 [5], 4.1 nM | 0.464 | –
E57 [5], 12.3 nM | 0.657 | –
E57 [5], 37 nM | 0.543 | –
E57 [5], 111.1 nM | 0.801 | –
E57 [5], 333.3 nM | 0.46 | –
E57 [5], 1000 nM | 0.757 | –
E57 [5], 3000 nM | 0.505 | –
E57 [12], 4.1 nM | – | 1.06
E57 [12], 12.3 nM | – | 0.999
E57 [12], 37 nM | – | 1.06
E57 [12], 111.1 nM | – | 1.03
E57 [12], 333.3 nM | – | 0.978
E57 [12], 1000 nM | – | 0.975
E57 [12], 3000 nM | – | 1.04
FT3469 [6], 4.1 nM | 0.479 | –
FT3469 [6], 12.3 nM | 0.821 | –
FT3469 [6], 37 nM | 0.541 | –
FT3469 [6], 111.1 nM | 0.878 | –
FT3469 [6], 333.3 nM | 0.406 | –
FT3469 [6], 1000 nM | 0.742 | –
FT3469 [6], 3000 nM | 0.873 | –
FT3469 [13], 4.1 nM | – | 1.03
FT3469 [13], 12.3 nM | – | 1.1
FT3469 [13], 37 nM | – | 1.25
FT3469 [13], 111.1 nM | – | 1.04
FT3469 [13], 333.3 nM | – | 1.26
FT3469 [13], 1000 nM | – | 1.18
FT3469 [13], 3000 nM | – | 1.38

From the supplement of paper PMC13207355
